In publication PMC2891903 (The Journal of nutritional biochemistry, 2010):

Target: T1, vitamin D receptor (VDR) (Homo sapiens, UniProt P11473)
T1 sequence (P11473 1-427): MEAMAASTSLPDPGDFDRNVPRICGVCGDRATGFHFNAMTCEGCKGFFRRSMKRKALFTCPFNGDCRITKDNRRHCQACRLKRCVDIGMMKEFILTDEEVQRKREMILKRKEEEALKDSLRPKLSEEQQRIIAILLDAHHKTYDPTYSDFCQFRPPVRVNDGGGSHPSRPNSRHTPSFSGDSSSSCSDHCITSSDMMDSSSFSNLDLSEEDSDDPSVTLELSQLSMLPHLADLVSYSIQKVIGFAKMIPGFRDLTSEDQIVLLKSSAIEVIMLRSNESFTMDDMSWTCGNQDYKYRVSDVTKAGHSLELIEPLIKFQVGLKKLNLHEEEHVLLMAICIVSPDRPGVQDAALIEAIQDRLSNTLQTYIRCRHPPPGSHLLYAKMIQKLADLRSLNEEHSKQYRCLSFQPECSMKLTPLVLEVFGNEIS
T1 sequence (P19793 1-462 partner): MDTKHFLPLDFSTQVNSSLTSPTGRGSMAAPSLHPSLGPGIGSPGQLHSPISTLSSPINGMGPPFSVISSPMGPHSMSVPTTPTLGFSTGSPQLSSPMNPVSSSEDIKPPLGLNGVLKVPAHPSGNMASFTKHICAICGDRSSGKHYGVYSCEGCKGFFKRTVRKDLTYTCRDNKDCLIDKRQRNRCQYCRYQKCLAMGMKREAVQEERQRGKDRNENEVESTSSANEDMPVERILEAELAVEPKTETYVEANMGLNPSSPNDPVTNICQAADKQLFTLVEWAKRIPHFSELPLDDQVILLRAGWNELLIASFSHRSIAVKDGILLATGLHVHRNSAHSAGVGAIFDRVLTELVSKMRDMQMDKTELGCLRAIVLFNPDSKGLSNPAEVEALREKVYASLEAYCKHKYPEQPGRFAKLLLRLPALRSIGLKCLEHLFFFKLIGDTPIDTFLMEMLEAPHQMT
Assay: competitive displacement of [3H][…] from VDR in transfected COS-7 lysate
Assay type: binding

- Ki: 2900 nM
SMILES: COc1cc(/C=C/C(=O)CC(=O)/C=C/c2ccc(O)c(OC)c2)ccc1O [CM, curcumin]
